{
  "source": "patent US20260144756A1",
  "about": "(US NANO FOOD AND DRUG INC, priority 2022, published 2026)",
  "origin": "cited, not measured here",
  "details": "in vivo",
  "data": [
    {"smiles": "CC(C)(Oc1ccc(C(=O)c2ccc(Cl)cc2)cc1)C(=O)O", "note": "[fenofibric acid]", "values": [
      {"measurement": "elimination / terminal half-life", "value": "about 20 hours"}
    ]}
  ]
}
